Where two headings read alike, the source gives them in different places. A value given as a limit tells only on which side of the number the result lay.

Assay [1] deals with IRF pathway. Nature of the assay: Reporter gene expression assay in THP1-Dual cells, IRF axis (secreted Lucia luciferase). The conditions noted are these: read-out: THP-IRF activity (EC50 range). The class given is cell-based, human. The procedure:
(§1) THP1-Dual™ cells (Invivogen) were derived from the human THP-1 monocyte cell line by stable integration of two inducible reporter constructs. As a result, THP1-Dual™ cells allow the simultaneous study of the NF-κB pathway, by monitoring the activity of secreted SEAP, and the IRF pathway, by assessing the activity of a secreted luciferase (Lucia). […] THP1-Dual™ cells were seeded in 384-well plates in growth medium and stimulated with novel compounds. After […] of stimulation supernatant were removed and reporter proteins were readily measured in the cell culture supernatant using QUANTI-Blue™ (Invivogen), a SEAP detection reagent, and QUANTI-Luc™ (Invivogen), a luciferase detection reagent on a Spectramax i3X luminometer.
Background: Reporter assays use an easily measured gene product as a stand-in for the process of interest.

Assay [2] concerns the target T1, WT/R232 STING protein (Homo sapiens, UniProt Q86WV6, H232R).
T1 construct: host or cells: HEK293T
Put plainly: Luciferase reporter assay in HEK293T-hSTING-Luciferase cells, WT/R232. It is filed as cell-based. The conditions noted are these: 20 hr stimulation, read-out: R232 Activity (EC50 range). Summed up:
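Clonal HEK293T cells stably expressing human STING R232 plus an ISRE/ISG54-driven luciferase reporter, 5×10^5 per well, stimulated with compounds for 20 h. Secreted luciferase in supernatant measured by luminescence; […].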

The target of assay [3] is T2, hSTING(H232) (Homo sapiens, UniProt Q86WV6).
T2 construct: host or cells: HEK293T
Nature of the assay: Luciferase reporter assay in HEK293T-hSTING-Luciferase cells, H232 polymorph. It is filed as cell-based. The note with it: 20 hr stimulation, read-out: H232 activity (EC50 range). The text has this: (§2) • a) Stable STING expressing cells—Stable HEK293T STING-expressing cell lines were generated using plasmids purchased from Invivogen, Calif., USA, that contain STING cDNA cloned into the pUNO-1 vector under hEF1-HTLV promoter and containing the Blasticidin selection cassette. The plasmids hSTING(R232), hSTING(H232), hSTING(HAQ) were directly procured from Invivogen while hSTING (AQ) and hSTING (Q) were derived from hSTING(HAQ) and hSTING (R232) plasmids respectively by using a PCR based site directed mutagenesis method. These vectors were individually transfected into HEK293T cells using Lipofectamine (Invitrogen) and transfected cells were selected under Blasticidin selection. These transfected cells were further subjected to clonal selection using the limiting dilution method to obtain clonally pure populations of HEK cells transfected with each of the above mentioned human STING variants. Only those clones were selected in which ligand independent activation of STING was minimal. • b) Stable Luciferase reporter gene expressing cells—Stable HEK293T Luciferase reporter gene expressing cell lines were generated using pCDNA4 plasmids under an IRF-inducible promoter. This promoter is comprised of five tandem interferon-stimulated response elements (ISRE) fused to an ISG54 minimal promoter. This vector was transfected into HEK293T cells using Lipofectamine (Invitrogen) and transfected cells were selected under Zeocin selection. These transfected cells were further subjected to clonal selection using the limiting dilution method to obtain clonally pure populations of HEK cells transfected the Luciferase reporter construct. Only those clones were selected in which ligand independent induction of luciferase was minimal.
(§3) 5×10^5 clonally selected HEK293T-hSTING-Luciferase cells were seeded in 384-well plates in growth medium and stimulated with novel compounds. After 20 hr of stimulation supernatant were removed and secretary reporter gene activity were measured using the Quanti-Luc detection system (Invivogen) on a Spectramax i3X luminometer.
(§4) The 5 major polymorphisms of human STING are shown in FIG. 1, with their prevalence in human populations indicated.

For assay [4], the target named is T3, hSTING(HAQ) (Homo sapiens, UniProt Q86WV6, G230A/H232R/R293Q/R71H).
T3 construct: host or cells: HEK293T
Nature of the assay: Luciferase reporter assay in HEK293T-hSTING-Luciferase cells, HAQ polymorph. It is filed as cell-based. The note with it: 20 hr stimulation, read-out: HAQ activity (EC50 range).
Text: as §2, §3, §4

In assay [5] the test system is NF-κB pathway. Nature of the assay: Reporter gene expression assay in THP1-Dual cells, NFkB axis (secreted SEAP). It is filed as cell-based, human. The conditions noted are these: read-out: THP-NFKB activity (EC50 range). The procedure: as §1

T3 sequence (Q86WV6 whole entry R71H/G230A/H232R/R293Q): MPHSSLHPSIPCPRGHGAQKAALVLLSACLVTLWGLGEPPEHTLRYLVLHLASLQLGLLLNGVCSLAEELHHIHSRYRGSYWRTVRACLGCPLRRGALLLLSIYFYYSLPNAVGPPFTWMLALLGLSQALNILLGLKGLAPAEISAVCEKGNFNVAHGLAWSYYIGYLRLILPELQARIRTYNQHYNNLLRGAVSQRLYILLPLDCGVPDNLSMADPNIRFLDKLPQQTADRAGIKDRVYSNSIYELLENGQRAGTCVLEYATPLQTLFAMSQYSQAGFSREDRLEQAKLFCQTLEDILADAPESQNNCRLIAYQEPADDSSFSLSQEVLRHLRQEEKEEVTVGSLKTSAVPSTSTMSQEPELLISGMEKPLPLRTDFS
T2 sequence (Q86WV6 whole entry): as the sequence (Q86WV6 whole entry R71H/G230A/H232R/R293Q) above, with H71R, A230G, R232H, Q293R counted along it
T1 sequence (Q86WV6 whole entry H232R): as the sequence (Q86WV6 whole entry R71H/G230A/H232R/R293Q) above, with H71R, A230G, Q293R counted along it

By EC50 is commonly meant the concentration needed to bring the measured effect to its halfway point. As to `O=C(NCc1c(F)cccc1F)c1ccc2c(c1)N(Cc1c(F)cccc1Cl)C(=O)CS2` [Example 31, 4-(2-chloro-6-fluorobenzyl)-N-(2,6-difluorobenzyl)-3-oxo-3,4-dihydro-2H-benzo[b-1,4]thiazine 6-carboxamide], the EC50 in assay [1] (Homo sapiens, THP1-Dual) was > 10 µM; in assay [2], < 1 µM; in assay [3], < 1 µM; in assay [4], 1 to 10 µM; in assay [5] (Homo sapiens, THP1-Dual), > 10 µM.
Consider `O=C(NCc1ccc(F)cc1F)c1ccc2c(c1)N(Cc1c(F)cccc1Cl)C(=O)CS2` [Example 34, 4-(2-chloro-6-fluorobenzyl)-N-(2,4-difluorobenzyl)-3-oxo-3,4-dihydro-2H-benzo[b-1,4]thiazine-6-carboxamide], for which the EC50 was > 10 µM in assay [1] (Homo sapiens, THP1-Dual); < 1 µM in assay [2]; < 1 µM in assay [3]; 1 to 10 µM in assay [4]; > 10 µM in assay [5] (Homo sapiens, THP1-Dual).
For the compound `Cc1cccc(CNC(=O)c2ccc3c(c2)N(Cc2c(F)cccc2Cl)C(=O)CS3)c1` [Example 37, 4-(2-chloro-6-fluorobenzyl)-N-(3-methylbenzyl)-3-oxo-3,4-dihydro-2H-benzo[b-1,4]thiazine-6-carboxamide], the concentration giving a half-maximal response (EC50) was > 10 µM in assay [1] (Homo sapiens, THP1-Dual); < 1 µM in assay [2]; 1 to 10 µM in assay [3]; > 10 µM in assay [4]; > 10 µM in assay [5] (Homo sapiens, THP1-Dual).
Regarding `O=C(NCc1c(F)cc(F)cc1F)c1ccc2c(c1)N(Cc1ccncc1)C(=O)CS2` [Example 39, 3-oxo-4-(pyridin-4-ylmethyl)-N-(2,4,6-trifluoro-benzyl)-3,4-dihydro-2H-benzo[b-1,4]thiazine-6-carboxamide], the concentration for a half-maximal effect (EC50) was > 10 µM in assay [1] (Homo sapiens, THP1-Dual); 1 to 10 µM in assay [2]; 1 to 10 µM in assay [3]; 1 to 10 µM in assay [4]; > 10 µM in assay [5] (Homo sapiens, THP1-Dual).
With `O=C(NCc1cc2ccccc2o1)c1ccc2c(c1)N(Cc1c(F)cccc1Cl)C(=O)CS2` [Example 40, N-(benzofuran-2-ylmethyl)-4-(2-chloro-6-fluorobenzyl)-3-oxo-3,4-dihydro-2H-benzo[b-1,4]thiazine-6-carboxamide], the EC50 was 1 to 10 µM in assay [1] (Homo sapiens, THP1-Dual); < 1 µM in assay [2]; 1 to 10 µM in assay [3]; 1 to 10 µM in assay [4]; 1 to 10 µM in assay [5] (Homo sapiens, THP1-Dual).
Regarding `CC1Sc2ccc(C(=O)NCc3c(F)cc(F)cc3F)cc2N(Cc2ccccc2F)C1=O` (stereo not shown) [Example 140, 4-(2-fluorobenzyl)-2-methyl-3-oxo-N-(2,4,6-trifluorobenzyl)-3,4-dihydro-2H-benzo[b-1,4]thiazine-6-carboxamide], the concentration for a half-maximal effect (EC50) was 1 to 10 µM in assay [1] (Homo sapiens, THP1-Dual); < 1 µM in assay [2]; 1 to 10 µM in assay [5] (Homo sapiens, THP1-Dual).
Regarding `CC1Sc2ccc(C(=O)NCc3c(F)cc(F)cc3F)cc2N(Cc2ccccc2F)C1=O` (stereo not shown) [Example 142, 4-(2-fluorobenzyl)-2-methyl-3-oxo-N-(2,4,6-trifluorobenzyl)-3,4-dihydro-2H-benzo[b-1,4]thiazine-6-carboxamide], the EC50 in assay [1] was 1 to 10 µM; in assay [3], < 1 µM; in assay [4], < 1 µM.
With `CC1(CCl)Sc2ccc(C(=O)NCc3ccc(F)cc3F)cc2N(Cc2c(F)cccc2Cl)C1=O` (stereo not shown) [Example 150, 4-(2-chloro-6-fluorobenzyl)-2-(chloromethyl)-N-(2,4-difluorobenzyl)-2-methyl-3-oxo-3,4-dihydro-2H-benzo[b][1,4] thiazine-6-carboxamide], the EC50 in assay [1] and in assay [5] was 1 to 10 µM throughout.
With `O=C(NCc1ccco1)c1ccc2c(c1)N(C(=O)c1c(F)cccc1Cl)CCO2` [Example 265, 4-(2-chloro-6-fluorobenzoyl)-N-(furan-2-ylmethyl)-3,4-dihydro-2H-benzo[b-1,4]oxazine-6-carboxamide], the EC50 in assay [2] is > 10 µM.
In the case of `O=C(NCc1ccco1)c1ccc2c(c1)N(Cc1ccccc1)C(=S)CS2` [Example 266, 4-Benzyl-N-(furan-2-ylmethyl)-3-thioxo-3,4-dihydro-2H-benzo[b-1,4]thiazine-6-carboxamide], the EC50 in assay [2] is > 10 µM.
Same read-out and setting: then `O=C(NCc1ccco1)c1ccc2c(c1)N(Cc1c(F)cccc1Cl)C(=O)CC2` [Example 268, 1-(2-chloro-6-fluorobenzyl)-N-(furan-2-ylmethyl)-2-oxo-1,2,3,4-tetrahydroquinoline-7-carboxamide], with > 10 µM; and `O=C(NCc1cc2ccncc2o1)c1ccc2c(c1)N(Cc1cc(F)cc(F)c1)C(=O)CC2` [Example 272, 1-(3,5-difluorobenzyl)-N-(furo[2,3-c]pyridin-2-ylmethyl)-2-oxo-1,2,3,4-tetrahydroquinoline-7-carboxamide], with > 10 µM; and `O=C(NCc1cc2cnccc2o1)c1ccc2c(c1)N(Cc1cc(F)cc(F)c1)C(=O)CC2` [Example 273, 1-(3,5-difluorobenzyl)-N-(furo[3,2-c]pyridin-2-ylmethyl)-2-oxo-1,2,3,4-tetrahydroquinoline-7-carboxamide], with > 10 µM.
On the same count and under the same terms, then `O=C(NCc1cc2cccnc2o1)c1ccc2c(c1)N(Cc1cc(F)cc(F)c1)C(=O)CC2` [Example 274, 1-(3,5-difluorobenzyl)-N-(furo[2,3-b]pyridin-2-ylmethyl)-2-oxo-1,2,3,4-tetrahydroquinoline-7-carboxamide], with > 10 µM; and `O=C(NCc1cc2ncccc2o1)c1ccc2c(c1)N(Cc1cc(F)cc(F)c1)C(=O)CC2` [Example 275, 1-(3,5-difluorobenzyl)-N-(furo[3,2-b]pyridin-2-ylmethyl)-2-oxo-1,2,3,4-tetrahydroquinoline-7-carboxamide], with > 10 µM; and `O=C(NCc1c(F)cc(F)cc1F)c1cnc2c(c1)N(Cc1cc(F)cc(F)c1)C(=O)CC2` [Example 276, 5-(3,5-Difluorobenzyl)-6-oxo-N-(2,4,6-trifluorobenzyl)-5,6,7,8-tetrahydro-1,5-naphthyridine-3-carboxamide], with 1 to 10 µM.
Still for that read-out and setting: then `O=C(NCc1ccc(F)cc1F)c1cnc2c(c1)N(Cc1cc(F)cc(F)c1)C(=O)CC2` [Example 277, N-(2,4-difluorobenzyl)-5-(3,5-difluorobenzyl)-6-oxo-5,6,7,8-tetrahydro-1,5-naphthyridine-3-carboxamide], with 1 to 10 µM; and `O=C(NCc1cc2ccccc2o1)c1cnc2c(c1)N(Cc1cc(F)cc(F)c1)C(=O)CC2` [Example 278, N-(benzofuran-2-ylmethyl)-5-(3,5-difluorobenzyl)-6-oxo-5,6,7,8-tetrahydro-1,5-naphthyridine-3-carboxamide], with > 10 µM.
In the case of `O=C(NCc1ccc(F)cc1F)c1cnc2c(c1)N(Cc1ccc(F)cc1)C(=O)CC2` [Example 280, N-(2,4-difluorobenzyl)-5-(4-fluorobenzyl)-6-oxo-5,6,7,8-tetrahydro-1,5-naphthyridine-3-carboxamide], in assay [2], the EC50 is > 10 µM.
As to `O=C(NCc1ccc(F)cc1F)c1ccc2c(n1)N(Cc1ccc(F)cc1)C(=O)CC2` [Example 282, N-(2,4-difluorobenzyl)-8-(4-fluorobenzyl)-7-oxo-5,6,7,8-tetrahydro-1,8-naphthyridine-2-carboxamide], in assay [2], the half-maximal effective concentration (EC50) was 1 to 10 µM.
Turning to `O=C(NCc1c(F)cc(F)cc1F)c1ccc2c(n1)N(Cc1cc(F)cc(F)c1)C(=O)CC2` [Example 283, (3,5-difluorobenzyl)-7-oxo-N-(2,4,6-trifluorobenzyl)-5,6,7,8-tetrahydro-1,8-naphthyridine-2-carboxamide], the EC50 in assay [2] lay within 1 to 10 µM.

For the origin of these results see US20200138827A1, “SMALL MOLECULE MODULATORS OF HUMAN STING” (Curadev Pharma Limited, priority 2017, published 2020).
